Assay results as given in publication PMC6199744, “Development of Chemical Proteomics for the Folateome and Analysis of the Kinetoplastid Folateome” (ACS Infectious Diseases, 2018).

Tests used:
PTR1 = biological target: T1, PTR1 (Leishmania major, UniProt Q01782); assay: biochemical; settings: competing free ligand 100 μM; bead = immobilized compound of the row; L. major lysate; read-out: % Inhibition of protein binding to bead, PTR-1, L. major
T1 sequence (Q01782 1-288): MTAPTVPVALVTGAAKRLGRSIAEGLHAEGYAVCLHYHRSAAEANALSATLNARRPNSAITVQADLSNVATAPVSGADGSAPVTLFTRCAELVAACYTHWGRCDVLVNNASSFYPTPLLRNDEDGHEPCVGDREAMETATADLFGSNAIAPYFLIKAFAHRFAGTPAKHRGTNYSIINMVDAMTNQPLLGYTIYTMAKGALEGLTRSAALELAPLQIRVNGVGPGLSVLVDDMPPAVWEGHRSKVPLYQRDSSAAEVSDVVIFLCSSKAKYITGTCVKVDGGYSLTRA

[1] = test system: MTHF complex (DHCH protein in humans); assay: Multitargeted bead mixture competition, HeLa cell extract; format: binding, human; settings: bead mixture; HeLa cell extract
[2] = test system: PHOSPHATIDYLINOSITOL-4-PHOSPHATE 5-KINASE, PUTATIV (TB427.10.3890); assay: Multitargeted bead mixture competition; format: binding; settings: free ligand 100 μM, T. brucei lysate
[3] = test system: HYPOTHETICAL PROTEIN, CONSERVED (Tb427.10.6100); assay: Multitargeted bead mixture competition; format: binding; settings: free ligand 100 μM, T. brucei lysate
TB927.7.1340 = assay: Multitargeted bead mixture competition; format: binding; settings: free ligand 100 μM, T. brucei lysate
[4] = test system: PEPTIDYL-PROLYL CIS-TRANS ISOMERASE (CYCLOPHILIN- (TB427TMP.211.1350)); assay: Multitargeted bead mixture competition; format: binding; settings: free ligand 100 μM, T. brucei lysate
TB09.211.1690 = assay: Multitargeted bead mixture competition; format: binding; settings: free ligand 100 μM, T. brucei lysate
[5] = test system: HYPOTHETICAL PROTEIN, CONSERVED (TB427.03.2670); assay: Multitargeted bead mixture competition; format: binding; settings: free ligand 100 μM, T. brucei lysate
[6] = test system: SUCCINYL-COA SYNTHETASE ALPHA SUBUNIT, PUTATIVE (Tb427.03.2230); assay: Multitargeted bead mixture competition; format: binding; settings: free ligand 100 μM, T. brucei lysate
TB427.04.1870 = assay: Multitargeted bead mixture competition; format: binding; settings: free ligand 100 μM, T. brucei lysate
T. brucei = test system: T. brucei; parameters: method as in ref 5 (SI); settings: ref 5 (SI); read-out: EC50 against T. brucei, in vitro cell growth; cited from earlier work
[7] = test system: HYPOTHETICAL PROTEIN, CONSERVED (TB427.05.3680); assay: Multitargeted bead mixture competition; format: binding; settings: free ligand 100 μM, T. brucei lysate
[8] = test system: BRANCHED-CHAIN AMINO ACID AMINOTRANSFERASE, PUTATI (TB427.02.4590); assay: Multitargeted bead mixture competition; format: binding; settings: free ligand 100 μM, T. brucei lysate
PTR-1 = PTR-1 (Trypanosoma brucei brucei, UniProt O76290); assay: Individual bead pull down with competing free ligand; settings: competing free ligand 100 μM; bead = immobilized compound of the row; T. brucei lysate; read-out: % Inhibition of protein binding to bead, PTR-1, T. brucei
PTR-1, sequence (O76290 entry or part of it): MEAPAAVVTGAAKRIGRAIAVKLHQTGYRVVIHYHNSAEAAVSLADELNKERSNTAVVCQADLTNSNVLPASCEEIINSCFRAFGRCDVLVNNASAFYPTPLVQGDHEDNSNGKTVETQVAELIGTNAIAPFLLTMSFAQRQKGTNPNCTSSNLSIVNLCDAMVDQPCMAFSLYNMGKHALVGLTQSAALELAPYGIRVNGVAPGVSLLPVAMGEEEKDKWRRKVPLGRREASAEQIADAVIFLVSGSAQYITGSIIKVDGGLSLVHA
Description: (§1) Antifolate compounds were immobilized onto NHS-activated sepharose beads/reverse sepharose beads through amide coupling via either an amino or carboxyl group (see Figure 3). The reaction was monitored by observing the disappearance of test compound by LCMS, after which the unreacted coupling sites were capped with NHS-acetate or aminoethanol.
(§2) Folate metabolizing enzymes are not highly abundant proteins,[19],[20] potentially making their identification by MS difficult. Beads will not only pull down the low abundant high affinity binders but also attract highly abundant, low affinity binders or so-called nonspecific binders. Sometimes, the nonspecific high abundant proteins can mask true binders. The target identification approach used in this study overcomes this issue by performing competition studies. Various concentrations of the free unmodified inhibitor (test compound) were preincubated with the lysate, prior to addition of the beads derivatized with immobilized compounds. Following washing of the bound proteins from the beads and tryptic digest, the peptides were labeled using the TMTs and then pooled. Differences in peptide abundance were analyzed by fragmentation of the isotope-coded isobaric tags in the MS/MS spectra (Figure 5).[9],[11],[12],[21] While the competition experiments with test compound confirm specific binding, it is also possible that some proteins will have a stronger binding interaction with the derivatized beads than the competing test compound, due to subtle differences in the interactions between the immobilized compound and the test compound with the target protein.

DHFR-TS = DHFR-TS (Trypanosoma brucei brucei, UniProt Q27783); assay: as above; settings: competing free ligand 100 μM; bead = immobilized compound of the row; T. brucei lysate; read-out: % Inhibition of protein binding to bead, DHFR-TS, T. brucei
DHFR-TS, sequence (Q27783 whole entry): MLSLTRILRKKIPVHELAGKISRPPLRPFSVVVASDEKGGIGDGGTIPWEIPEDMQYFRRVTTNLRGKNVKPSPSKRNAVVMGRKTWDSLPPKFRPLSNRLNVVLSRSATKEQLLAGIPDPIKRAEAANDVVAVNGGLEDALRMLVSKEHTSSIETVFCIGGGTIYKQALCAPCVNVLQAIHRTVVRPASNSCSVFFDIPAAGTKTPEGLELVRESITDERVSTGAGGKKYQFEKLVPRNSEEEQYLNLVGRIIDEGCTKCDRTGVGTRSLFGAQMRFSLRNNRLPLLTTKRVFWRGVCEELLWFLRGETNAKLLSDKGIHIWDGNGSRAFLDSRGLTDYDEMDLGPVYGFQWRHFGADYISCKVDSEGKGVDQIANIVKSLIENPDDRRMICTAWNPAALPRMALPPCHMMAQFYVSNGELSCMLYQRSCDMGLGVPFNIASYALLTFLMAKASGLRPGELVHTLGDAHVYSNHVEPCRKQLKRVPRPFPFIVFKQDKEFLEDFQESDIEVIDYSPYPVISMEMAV
Description: as §1, §2

[9] = test system: PROTEIN KINASE, PUTATIVE (Tb427.03.1570); assay: Multitargeted bead mixture competition; format: binding; settings: free ligand 100 μM, T. brucei lysate
TB927.8.6760 = assay: Multitargeted bead mixture competition; format: binding; settings: free ligand 100 μM, T. brucei lysate
[10] = test system: ACETYLTRANSFERASE, PUTATIVE (Tb427.08.3310); assay: Multitargeted bead mixture competition; format: binding; settings: free ligand 100 μM, T. brucei lysate
TbDHFR = settings: direct enzyme assays; cited from earlier work
TbTS = settings: direct enzyme assays; read-out: TbTS Ki; cited from earlier work

For `CCCCCCOc1cccc(Cc2cnc(N)nc2N)c1` [compound 2], the inhibition at 100 µM (PTR1) was < 50%.

With `CCCCCCOc1ccc(Cc2cnc(N)nc2N)cc1` [compound 1] the “inhibition, all subunits of the MTHF complex” value [1] was > 70% and the inhibition at 100 µM (PTR1) was < 50%.

In the case of `Nc1nc2cccc(-c3ccccc3)c2n1Cc1ccc(Cl)c(Cl)c1` [compound 3], the “percentage of competition from bead binding” value (shortened to “percentage of competition”) [2] is reported as -23%, the “percentage of competition” value [3] is reported as 67% and the “percentage of competition” value (TB927.7.1340) is reported as 40%. The “percentage of competition” value [4] was 38%, the “percentage of competition” value (TB09.211.1690) was 39% and the “percentage of competition” value [5] was 62%. The “percentage of competition” value [6] was 10%, the “percentage of competition” value (TB427.04.1870) was 47% and the inhibition at 100 µM (PTR1) was < 50%. The EC50 (T. brucei) was 10 µM, the “percentage of competition” value [7] was 68% and the “percentage of competition” value [8] was 51%. The inhibition at 100 µM (PTR-1) was < 50%, the inhibition at 100 µM (DHFR-TS) was < 50% and the “percentage of competition” value [9] was -2%. The “percentage of competition” value (TB927.8.6760) was 20% and the “percentage of competition” value [10] was 37%.

For `Nc1nc2[nH]cc(CCc3ccc(C(=O)N[C@@H](CCC(=O)O)C(=O)O)cc3)c2c(=O)[nH]1` [PTX, pemetrexed], the Ki (TbDHFR) is listed as 0.29 ± 0.02 µM and the Ki (TbTS) is listed as 20.5 µM.
